Assay [1] addresses T1, His-GST-TVMV-hRIPK1(1-324) (Homo sapiens, UniProt Q13546).
T1 construct: 1 nM His-GST-TVMV-hRIPK1(1-324) in FRET Buffer; made in house; host or cells: Spodoptera frugiperda (Sf9) insect cells, baculovirus (Bac-to-Bac)
T1 sequence (Q13546 1-324): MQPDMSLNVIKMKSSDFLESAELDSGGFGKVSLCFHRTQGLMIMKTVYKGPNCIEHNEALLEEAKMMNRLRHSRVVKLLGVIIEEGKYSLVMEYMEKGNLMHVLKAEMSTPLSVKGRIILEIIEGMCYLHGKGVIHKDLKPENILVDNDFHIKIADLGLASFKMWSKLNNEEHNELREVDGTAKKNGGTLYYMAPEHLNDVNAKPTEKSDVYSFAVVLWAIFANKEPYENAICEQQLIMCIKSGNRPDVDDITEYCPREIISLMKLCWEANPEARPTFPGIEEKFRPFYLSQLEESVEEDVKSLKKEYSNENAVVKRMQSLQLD
Kind of assay: RIPK1 HTRF Binding Assay. The note with it: HTRF probe displacement, 1 h at rt. As to the method:
A solution was prepared containing 0.2 nM Anti GST-Tb (Cisbio, 61GSTTLB), 90.6 nM probe and 1 nM His-GST-TVMV-hRIPK1(1-324) in FRET Buffer (20 mM HEPES, 10 mM MgCl2, 0.015% Brij-35, 4 mM DTT, 0.05 mg/mL BSA). Using Formulatrix Tempest, the detection antibody/enzyme/probe solution ([…]) was dispensed into wells of a 1536 plate (Black Low Binding Polystyrene 1536 Plate (Corning, 3724)) containing 10 nL of compounds of interest at appropriate concentration in DMSO. The plate was incubated at rt for 1 h. FRET was measured using the EnVision plate reader (Excitation: 340 nm, Emission: 520 nm/[…]). Total signal (0% inhibition) was calculated from wells containing 10 nL DMSO only.
Cloning and Baculovirus Expression of RIPK1 Construct
The coding region of human RIPK1(1-324) flanked by NdeI site at 5′ end and stop codon TGA and XhoI site at 3′ end was codon optimized and gene synthesized at GenScript USA Inc. (Piscataway, NJ) and subcloned into a modified pFastBac1 vector (Invitrogen, Carlsbad, CA) with N-terminal His-GST-TVMV tag, to generate His-GST TVMV-hRIPK1(1-324)-pFB. The fidelity of the synthetic fragment was confirmed by sequencing. Baculovirus was generated for the construct using the Bac-to-Bac baculovirus expression system (Invitrogen) according to the manufacturer's protocol. Briefly, recombinant bacmid was isolated from transformed DH10Bac E. coli competent cells 20 (Invitrogen) and used to transfect Spodoptera frugiperda (Sf9) insect cells (Invitrogen). Baculovirus was harvested 72 hours post transfection and a virus stock was prepared by infecting fresh Sf9 cells at a 1/1000 (v/v) ratio for 66 hours. For large scale protein production, Sf9 cells (Expression System, Davis, CA) grown in ESF921 insect medium (Expression System) at 2×10^6 cells/ml were infected with virus stock at a 1/100 (v/v) ratio for 66 hours. The production was carried out either at a 10 L scale in a 22 L cellbag (GE Healthcare Bioscience, Pittsburgh, PA) or at a 20 L scale in a 50 L cellbag using WAVE-Bioreactor System 20/50 (GE Healthcare Bioscience). The infected cells were harvested by centrifugation at 2000 rpm for 20 min at 4° C. in a SORVALL® RC12BP centrifuge. The cell pellets was stored at −70° C. before protein was purified.
Purification of His-GST-TVMV-hRIPK1(1-324)
RIPK1 containing cell paste was resuspended in 50 mM Tris pH 7.5, 150 mM NaCl, 10 mM imidazole, 5% glycerol, 5 mM MgSO4, 1 mM TCEP, 25 U/ml Benzonase, and Complete Protease Inhibitor tablets (1/50 ml, Roche Diagnostics, Indianapolis, IN). The cells were lysed by nitrogen cavitation using an unstirred pressure vessel @ 525 PSI (Parr Instrument Company, Moline, IL). The suspension was clarified by centrifugation at 136,000×g for 40 min, at 4° C. The lysate was decanted from the pellet and passed through a 5 ml NiNTA Superflow cartridge (Qiagen, Valencia, CA) using an AKTA Pure (GE Healthcare). Column was eluted with 10 CV linear gradient into 50 mM Tris 7.5, 150 mM NaCl, 500 mM imidazole, 5% glycerol, 1 mM TCEP. Peak fractions were pooled and loaded directly onto 5 ml GSTrap 4B column (GE Healthcare). Column was washed with 50 mM Tris 7.0, 150 mM NaCl, […], 1 mM DTT and eluted in 10 CV linear gradient into 50 mM Tris 8.0, 150 mM NaCl, 20 mM reduced glutathione, 50% glycerol, 1 mM DTT. Fractions identified by SDS-PAGE as containing RIPK1 were pooled and concentrated using 30 kDa MWCO spin concentrators (Amicon Ultra-15, Millipore, Billerica, MA) and loaded onto a HiLoad 26/600 Superdex 200 column (GE Healthcare) equilibrated in 25 mM Tris 7.5, 150 mM NaCl, 2 mM TCEP, […]. The RTPK1 protein eluted as a dimer off the SEC column. The yield was ˜8 mg/L with a purity […] as determined by Coomassie stain SDS-PAGE gel analysis. […] Protein was aliquoted and stored at −80° C. Using these assays, the IC50 values of the following compounds were determined.
A general note: TR-FRET usually uses a lanthanide donor and a delayed reading to cut background.

The test system of assay [2] is MLKL phosphorylation in HT29-L23 human colorectal adenocarcinoma cells. In words: MLKL Phosphorylation High-Content Assay. It is filed as cell-based. The settings on record: Homo sapiens, necroptosis induced with TNFα, SMAC mimetic and Z-VAD, 6 h, read-out: pMLKL (IC50). The method, then:
MLKL Phosphorylation High-Content Assay
HT29-L23 human colorectal adenocarcinoma cells were maintained in RPMI 1640 medium containing 10% heat-inactivated FBS, 1% Penicillin-Streptomycin and 10 mM HEPES. Cells were seeded at 2,000 cells/well in 384 well tissue culture-treated microplates (Greiner #781090-3B) and incubated at 37° C. (5% CO2/95% O2) for 2 d. On the day of the assay, the cells were treated with test compounds at final concentrations of 6.25 to 0.106 μM for 30 min at 37° C. (5% CO2/95% O2). Necroptopsis was induced using a mixture of human TNFα (35 ng/mL) (Peprotech #300-01A), SMAC mimetic (from US 2015/0322111 A1) (700 nM) and Z-VAD (140 nM) (BD pharmingen #51-6936). Following 6 h incubation at 37° C. (5% CO2/95% O2), the cells were fixed with 4% formaldehyde (ACROS 11969-0010) for 15 min at rt, then permeabilized with phosphate buffered saline (PBS) containing 0.2% Triton-X-100 for 10 min. MLKL phosphorylation was detected using anti-MLKL (phospho S358) antibody (Abcam #ab187091) (1:1000 dilution in Blocking Buffer [PBS supplemented with 0.1% BSA]) with ON incubation at 4° C. After washing three times in PBS, goat anti-rabbit Alexa-488 (1:1000 dilution) (Life Technologies, A1 1008) and Hoechst 33342 (Life Technologies, H3570) (1:2000 dilution) in Blocking Buffer were added for 1 h at rt. Following another three cycles of washes in PBS, the microplates were sealed, and cellular images were acquired in the Cellomics ArrayScan VTI high-content imager equipped with an X1 camera. Fluorescent images were taken using a 10× objective and the 386-23 BGRFRN_BGRFRN and 485-20 BGRFRN_BGRFRN filter sets, for nuclei and MLKL phosphorylation, respectively. The image sets were analyzed using the Compartmental Analysis Bioapplication software (Cellomics). The level of MLKL phosphorylation was quantified as MEAN_CircRingAvglntenRatio. The maximal inhibitory response was defined by the activity induced by Necls (CAS #: 852391-15-2, 6.25 μm). The IC50 value was defined as the concentration of compound that produces 50% of the maximal inhibition. The data were fitted using the 4-parameter logistic equation to calculate the IC50 and Ymax values.

For `CNC(=O)c1n[nH]c2cc(-c3nc(C)c(C(=O)NCCC(C)c4ccccc4)s3)ccc12` (centres unmarked) [Example 15, 4-methyl-2-(3-(methylcarbamoyl)-1H-indazol-6-yl)-N-(3-phenylbutyl)thiazole-5-carboxamide], the IC50 in assay [1] was 8.3 nM; in assay [2], 44 nM.

With `CNC(=O)c1n[nH]c2cc(-c3nc(C)c(C(=O)NCC[C@@H](O)c4ccc(Cl)cc4)s3)ccc12` [Example 16, (R)-N-(3-(4-chlorophenyl)-3-hydroxypropyl)-4-methyl-2-(3-(methylcarbamoyl)-1H-indazol-6-yl)thiazole-5-carboxamide], the figures for the 50% inhibitory concentration (IC50) in assay [1] and in assay [2] were 150 nM and 210 nM, respectively.

In the case of `CNC(=O)c1n[nH]c2cc(-c3nc(C)c(C(=O)NCC[C@H](O)c4ccc(Cl)cc4)s3)ccc12` [Example 17, (S)-N-(3-(4-chlorophenyl)-3-hydroxypropyl)-4-methyl-2-(3-(methylcarbamoyl)-1H-indazol-6-yl)thiazole-5-carboxamide], the IC50 is 180 nM in assay [1] and 340 nM in assay [2].

As to `CNC(=O)c1n[nH]c2cc(-c3nc(C)c(C(=O)NCc4cc(C(F)(F)F)ccc4F)s3)ccc12` [Example 18, N-(2-fluoro-5-(trifluoromethyl)benzyl)-4-methyl-2-(3-(methylcarbamoyl)-1H-indazol-6-yl)thiazole-5-carboxamide], the concentration for half-maximal inhibition (IC50) stood at 15 nM in assay [1] and 9 nM in assay [2].

Turning to `CNC(=O)c1n[nH]c2cc(-c3nc(C)c(C(=O)NC(C)c4cc(OC(F)(F)F)ccc4F)s3)ccc12` (centres unmarked) [Example 19, N-(1-(2-fluoro-5-(trifluoromethoxy)phenyl)ethyl)-4-methyl-2-(3-(methylcarbamoyl)-1H-indazol-6-yl)thiazole-5-carboxamide], the IC50 in assay [1] was determined as 13 nM; in assay [2] it was 19 nM.

As to `CNC(=O)c1n[nH]c2cc(-c3nc(C(=O)NCc4cc(OC(F)(F)F)ccc4F)cs3)ccc12` [Example 20, N-(2-fluoro-5-(trifluoromethoxy)benzyl)-2-(3-(methylcarbamoyl)-1H-indazol-6-yl)thiazole-4-carboxamide], the half-maximal inhibitory concentration (IC50) in assay [1] was 400 nM; in assay [2], 810 nM.

`CNC(=O)c1n[nH]c2cc(-c3nc(C(=O)NCCC(C)c4ccccc4)cs3)ccc12` (centres unmarked) [Example 21, 2-(3-(methylcarbamoyl)-1H-indazol-6-yl)-N-(3-phenylbutyl)thiazole-4-carboxamide]: the half-maximal inhibitory concentration (IC50) in assay [1] is 170 nM; in assay [2], 810 nM.

Consider `CNC(=O)c1n[nH]c2cc(-c3nc(C(=O)NCC[C@@H](O)c4ccc(Cl)cc4)cs3)ccc12` [Example 22, (R)-N-(3-(4-chlorophenyl)-3-hydroxypropyl)-2-(3-(methylcarbamoyl)-1H-indazol-6-yl)thiazole-4-carboxamide], for which the IC50 in assay [1] was determined as 330 nM; in assay [2], 1200 nM.

Turning to `CNC(=O)c1n[nH]c2cc(-c3nc(C(=O)NCC[C@H](O)c4ccc(Cl)cc4)cs3)ccc12` [Example 23, (S)-N-(3-(4-chlorophenyl)-3-hydroxypropyl)-2-(3-(methylcarbamoyl)-1H-indazol-6-yl)thiazole-4-carboxamide], the IC50 in assay [1] worked out at 120 nM; in assay [2], 1600 nM.

`CNC(=O)c1n[nH]c2cc(-c3ncc(C(=O)NCCC(C)c4ccccc4)s3)ccc12` (centres unmarked) [Example 24, 2-(3-(methylcarbamoyl)-1H-indazol-6-yl)-N-(3-phenylbutyl)thiazole-5-carboxamide]: the IC50 in assay [1] turned out to be 280 nM; in assay [2], 700 nM.

Regarding `CNC(=O)c1n[nH]c2cc(-c3ncc(C(=O)NCC[C@@H](O)c4ccc(Cl)cc4)s3)ccc12` [Example 25, (R)-N-(3-(4-chlorophenyl)-3-hydroxypropyl)-2-(3-(methylcarbamoyl)-1H-indazol-6-yl)thiazole-5-carboxamide], the IC50 came out at 280 nM in assay [1] and 1600 nM in assay [2].

Take `CNC(=O)c1n[nH]c2cc(-c3nc(C)c(C(=O)NCc4cc(OC(F)(F)F)ccc4F)n3C)ccc12` [Example 26, 6-(5-((2-fluoro-5-(trifluoromethoxy)benzyl)carbamoyl)-1,4-dimethyl-1H-imidazol-2-yl)-N-methyl-1H-indazole-3-carboxamide]: the IC50 amounted to 30 nM in assay [1] and 49 nM in assay [2].

As for `CNC(=O)c1n[nH]c2cc(-c3nc(C)c(C(=O)NCCC(C)c4ccccc4)n3C)ccc12` (centres unmarked) [Example 27, 6-(1,4-dimethyl-5-((3-phenylbutyl)carbamoyl)-1H-imidazol-2-yl)-N-methyl-1H-indazole-3-carboxamide], the IC50 in assay [1] was 220 nM; in assay [2], 470 nM.

The IC50 is the concentration that gives 50% inhibition.

The values are drawn from US12275721B2, “Indazole carboxamides as kinase inhibitors” (BRISTOL-MYERS SQUIBB COMPANY, priority 2019, dated 2025).
